The values that follow come from patent publication US10662204B2 (PFIZER INC., priority 2018, dated 2020).

Test [1] concerns the target T1, KRAS G12C (Homo sapiens, UniProt P01116, G12C). Put plainly: Cell Activity Assay: accumulation of GDP-bound KRAS G12C in MIAPaCa-2 cells (Raf-1 RBD capture, MSD readout). It is filed as cell-based. Set-up: endogenous in cells; host or cells: MIAPaCa-2. The settings on record: 6 hours, assay limit is 30.00. Put shortly: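 MIAPaCa-2 cells exposed 6 h at 37 °C to 3-fold compound dilutions (0.3% DMSO final), then lysed. Active GTP-KRAS captured on Raf-1 RBD-coated plates, detected with anti-pan-Ras and SULFO-TAG secondary by MSD electrochemiluminescence. Signal normalized to DMSO and maximum inhibition; IC50 from 4-parameter fit.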

Test [2] deals with T1, KRAS G12C. Put plainly: Cell Activity Assay: IC50 in H358 cells. Set-up: endogenous in cells. It is filed as cell-based. The procedure: Compounds presented in the present invention lead to the accumulation of the GDP bound Ras upon treatment of human cancer cell line.
The accumulation of the GDP-bound KRAS G12C in cellular environment was measured based on the principle that KRAS G12C only binds to its downstream kinase; Raf-1 (MAP Kinase Kinase Kinase), when in its active-GTP bound state. In this state, Ras binded to a domain of Raf-1 kinase referred to as the Ras Binding Domain (RBD).
Raf-1 RBD (LJIC-1988A1) was diluted to 100 ng/well in PBS and 5 μl/well was spot coated onto MSD high bind SECTOR plates (L15XB). Plates were incubated at room temperature for 1 hour on an orbital shaker. Plates were washed with PBS/0.05% Tween-20 and 50 μl/well of thawed lysate samples were added, followed by 50 μl of 1% MSD Blocker A in PBS/0.05 Tween-20 (R93BA). Plates were incubated for 1 hour on an orbital shaker and washed with PBS/0.05% Tween-20. 25 μl/well of Anti-pan-Ras Antibody (Cell Biolabs 244003) diluted 1:3000 was added in 1% MSD Blocker A solution and plates were incubated for 1 hour on an orbital shaker and washed with PBS/0.05% Tween-20. SULFO-TAG goat anti-mouse secondary antibody (MSD R32AC) was diluted 1:500 in MSD Blocker A solution and added at 25 μL/well. Plates were incubated for 1 hour on an orbital shaker and washed with PBS/0.05% Tween-20. 150 μl/well of Read Buffer T (MSD R92TC) diluted 1:3 in H2O was added and plates were read on a Meso Scale Discovery Sector Imager S600.
KRAS signal was normalized to maximum inhibition and DMSO control values, and IC50 values were generated using a 4 parameter fit of the dose response curve. The decrease in IC50 reflects that the exemplary compound lead to a higher level of accumulation of GDP-bound KRAS G12C than another exemplary compounds at specific timepoint of treatment of cancer cell line.

For test [3], the target named is T2, GDP-loaded KRAS (1-169) G12C, C51S, C80L, C118S (Homo sapiens, UniProt P01116, C118S/C51S/C80L/G12C).
T2 construct: GDP-loaded KRAS (1-169) G12C, C51S, C80L, C118S
Description: Mass Spectrometry Reactivity Assay (MSRA): covalent adduct of compound and KRAS G12C, Percent Modification. Format: binding. The settings on record: for MSRA (% modification) 5.0 μM 0.25 hr / MSRA (% modification) 5.0 μM 0.017 hr: 5.0 μM compound; for MSRA (% modification) 10 μM 0.25 hr / MSRA (% modification) 10 μM 0.50 hr: 10 μM compound. The procedure, abridged:
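GDP-loaded KRAS(1-169) G12C/C51S/C80L/C118S at 5 μM in 25 mM Hepes pH 7.5, 200 mM NaCl, 5% glycerol incubated at RT with compound (typically 5 or 10 μM final, 1% DMSO). Quenched in formic acid at 1-60 min; intact-protein LC-TOF MS gives % modification = modified/(modified+unmodified).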

Usually IC50 stands for the concentration needed to halve the response being measured. A low value points to greater potency in that assay. For `C=CC(=O)N1CCN(c2ncnc3c(Oc4c(Cl)c(F)cc5[nH]ncc45)nc(Cl)cc23)CC1` [Example 20A, 1-(4-{6-chloro-8-[(5-chloro-6-fluoro-1H-indazol-4-yl)oxy]pyrido[3,4-d]pyrimidin-4-yl}piperazin-1-yl)prop-2-en-1-one], the half-maximal inhibitory concentration (IC50) against KRAS G12C [1] was 0.255 µM. Further, the midpoint of inhibition on KRAS G12C [2], the IC50, lay at 0.758 µM. In test [3], the “MSRA (% modification) 5.0 μM 0.25 hr” value is 85%, the “MSRA (% modification) 10 μM 0.25 hr” value turned out to be 73% and the “MSRA (% modification) 10 μM 0.50 hr” value turned out to be 80%.
Regarding `C=CC(=O)N1CCN(c2nc(O[C@@H]3CN(C)C[C@H]3C(F)F)nc3c(Oc4c(Cl)c(F)cc5[nH]ncc45)nccc23)CC1` (racemic) [Example 36I, rac-1-[4-(8-[(5-chloro-6-fluoro-1H-indazol-4-yl)oxy]-2-{[(3S,4R)-4-(difluoro-methyl)-1-methyl-pyrrolidin-3-yl]oxy}pyrido [3,4-d]pyrimidin-4-yl)piperazin-1-yl]prop-2-en-1-one], on KRAS G12C [1], the IC50 came out at 0.029 µM. For the same compound, the “MSRA (% modification) 5.0 μM 0.017 hr” value in test [3] was 57%.
`C=CC(=O)N1CCN(c2nc(O[C@@H]3CN(C)C[C@H]3OC)nc3c(Oc4c(Cl)c(Cl)cc5[nH]ncc45)nc(Cl)cc23)CC1` [Example 29G, 1-[4-(6-chloro-8-[(5,6-dichloro-1H-indazol-4-yl)oxy]-2-{[(3R,4R)-4-methoxy-1-methylpyrrolidin-3-yl]oxy}pyrido[3,4-d]pyrimidin-4-yl)piperazin-1-yl]prop-2-en-1-one] had an IC50 at KRAS G12C [1] of 0.005 µM. In addition, the “MSRA (% modification) 5.0 μM 0.017 hr” value in test [3] stood at 82%.
In the same order, the values of `C=CC(=O)N1CCN(c2nc(Oc3cccc4c3CCN(C)C4)nc3c(Oc4c(Cl)c(F)cc5[nH]ncc45)nccc23)CC1` [Example 22I, 1-(4-{8-[(5-chloro-6-fluoro-1H-indazol-4-yl)oxy]-2-[(2-methyl-1,2,3,4-tetrahydro-isoquinolin-5-yl)oxy]pyrido [3,4-d]pyrimidin-4-yl}piperazin-1-yl)prop-2-en-1-one] are 0.003 µM and 80%.
`C=CC(=O)N1CCN(c2nc(OC[C@@H]3CCCN3C)nc3c(Oc4c(Cl)c(C)cc5[nH]ncc45)nccc23)CC1` [Example 09H, 1-[4-(8-[(5-chloro-6-methyl-1H-indazol-4-yl)oxy]-2-{[(2S)-1-methylpyrrolidin-2-yl]methoxy}pyrido[3,4-d]pyrimidin-4-yl)piperazin-1-yl]prop-2-en-1-one]: the IC50 against KRAS G12C [1] worked out at 0.239 µM. Besides, in test [3], the “MSRA (% modification) 5.0 μM 0.25 hr” value was 78%, the “MSRA (% modification) 10 μM 0.25 hr” value stood at 81% and the “MSRA (% modification) 10 μM 0.50 hr” value came out at 83%.
Regarding `C=CC(=O)N1CCN(c2nc(N3CC(N(C)C)C3)nc3c(Oc4c(Cl)c(F)cc5[nH]ncc45)nc(Cl)cc23)CC1` [Example 05G, 1-(4-{6-chloro-8-[(5-chloro-6-fluoro-1H-indazol-4-yl)oxy]-2-[3-(dimethylamino)azetidin-1-yl]pyrido[3,4-d]pyrimidin-4-yl}piperazin-1-yl)prop-2-en-1-one], inhibition at KRAS G12C [1] was half-maximal at 0.164 µM (IC50). Further, in test [3], the “MSRA (% modification) 5.0 μM 0.25 hr” value is reported as 80%, the “MSRA (% modification) 10 μM 0.25 hr” value is on record as 81% and the “MSRA (% modification) 10 μM 0.50 hr” value stood at 82%.
Compound `C=CC(=O)N1CCN(c2nc(NCCN3CCN(C)CC3)nc3c(Oc4c(C)ccc5[nH]ncc45)cccc23)CC1` [Example 19F, 1-[4-(8-[(5-methyl-1H-indazol-4-yl)oxy]-2-{[2-(4-methylpiperazin-1-yl)ethyl]amino}quinazolin-4-yl)piperazin-1-yl]prop-2-en-1-one] registered an IC50 on KRAS G12C [1] of 3.7 µM. Moreover, the “MSRA (% modification) 10 μM 0.25 hr” value in test [3] is reported as 24%.
For `C=CC(=O)N1CCN(c2nc(OCCO)nc3c(Oc4c(Cl)c(F)cc5[nH]ncc45)nc(Cl)cc23)CC1` [Example 23G, 1-(4-{6-chloro-8-[(5-chloro-6-fluoro-1H-indazol-4-yl)oxy]-2-(2-hydroxyethoxy)pyrido[3,4-d]pyrimidin-4-yl}piperazin-1-yl)prop-2-en-1-one], it took 0.688 µM to reach half-maximal inhibition against KRAS G12C [1] (IC50). In addition, the “MSRA (% modification) 5.0 μM 0.25 hr” value in test [3] was determined as 35%.
As to `C=CC(=O)N1CCN(c2ncnc3c(Oc4c(C)ccc5[nH]ncc45)nc(C(F)(F)F)cc23)CC1` [Example 03A, 1-(4-{8-[(5-methyl-1H-indazol-4-yl)oxy]-6-(trifluoromethyl)pyrido[3,4-d]pyrimidin-4-yl}piperazin-1-yl)prop-2-en-1-one], on KRAS G12C [1], 2.74 µM corresponded to half-maximal inhibition (IC50). In addition, in test [3], the “MSRA (% modification) 10 μM 0.50 hr” value was determined as 28%.
The compound `C=CC(=O)N1CCN(c2ncnc3c(Oc4c(C)c(Cl)cc5[nH]ncc45)cccc23)CC1CC#N` (stereo not shown) [Example 22C, (1-acryloyl-4-{8-[(5-chloro-6-mehtyl-1H-indazol-4-yl)oxy]quinazolin-4-yl}piperazin-2-yl)acetonitrile] registered an IC50 against KRAS G12C [1] of 14 µM. Also, in test [3], the “MSRA (% modification) 10 μM 0.25 hr” value was determined as 75% and the “MSRA (% modification) 10 μM 0.50 hr” value is 75%.
On KRAS G12C [1], `C=CC(=O)N1CCN(c2nc(NCc3nncn3C)nc3c(Oc4c(C)ccc5[nH]ncc45)cccc23)CC1` [Example 02F, 1-[4-(8-[(5-methyl-1H-indazol-4-yl)oxy]-2-{[(4-methyl-4H-1,2,4-triazol-3-yl)methyl]amino}quinazolin-4-yl)piperazin-1-yl]prop-2-en-1-one] came in with a half-inhibitory concentration (IC50) above 30 µM. Further, in test [3], the “MSRA (% modification) 10 μM 0.50 hr” value was found to be 14%.
At KRAS G12C [1], `C=CC(=O)N1CCN(c2nc(N3CCN(C)CC3)nc3c(Oc4c(C)ccc5[nH]ncc45)nccc23)CC1` [Example 03B, 1-(4-{8-[(5-methyl-1H-indazol-4-yl)oxy]-2-(4-methylpiperazin-1-yl)pyrido[3,4-d]pyrimidin-4-yl}piperazin-1-yl)prop-2-en-1-one] came in with a half-inhibitory concentration (IC50) of 27.1 µM. In addition, the “MSRA (% modification) 10 μM 0.50 hr” value in test [3] amounted to 6%.
With `C=CC(=O)N1CCN(c2nc(OC[C@@H]3C[C@H](F)CN3C)nc3c(Oc4c(Cl)c(F)cc5[nH]ncc45)nc(Cl)cc23)CC1` [Example 21G, 1-[4-(6-chloro-8-[(5-chloro-6-fluoro-1H-indazol-4-yl)oxy]-2-{[(2S,4S)-4-fluoro-1-methylpyrrolidin-2-yl]methoxy}pyrido[3,4-d]pyrimidin-4-yl)piperazin-1-yl]prop-2-en-1-one], the IC50 on KRAS G12C [1] is 0.075 µM. Also, the “MSRA (% modification) 10 μM 0.25 hr” value in test [3] turned out to be 80%.
In turn, `C=CC(=O)N1CCN(c2nc(O[C@@H]3CN(C)C[C@H]3OCC)nc3c(Oc4c(Cl)c(F)cc5[nH]ncc45)nc(Cl)cc23)CC1` [Example 27G, 1-[4-(6-chloro-8-[(5-chloro-6-fluoro-1H-indazol-4-yl)oxy]-2-{[(3R,4R)-4-ethoxy-1-methylpyrrolidin-3-yl]oxy}pyrido[3,4-d]pyrimidin-4-yl)piperazin-1-yl]prop-2-en-1-one] had an IC50 at KRAS G12C [1] of 0.029 µM. Moreover, the “MSRA (% modification) 5.0 μM 0.017 hr” value in test [3] came to 67%.
Regarding `C=CC(=O)N1CCN(c2ncnc3c(Oc4c(Cl)c(F)cc5[nH]ncc45)nc(Cl)cc23)C[C@@H]1C` [Example 36A, 1-[(2S)-4-{6-chloro-8-[(5-chloro-6-fluoro-1H-indazol-4-yl)oxy]pyrido[3,4-d]pyrimidin-4-yl}-2-methylpiperazin-1-yl]prop-2-en-1-one], the IC50 on KRAS G12C [1] is 4.7 µM. The “MSRA (% modification) 10 μM 0.25 hr” value in test [3] stood at 31%.
Compound `C=CC(=O)N1CCN(c2nc(O[C@@H]3CCOC3)nc3c(Oc4c(Cl)c(F)cc5[nH]ncc45)nccc23)CC1` [Example 02J, 1-(4-{8-[(5-chloro-6-fluoro-1H-indazol-4-yl)oxy]-2-[(3R)-tetrahydrofuran-3-yloxy]pyrido[3,4-d]pyrimidin-4-yl}piperazin-1-yl)prop-2-en-1-one] yielded an IC50 against KRAS G12C [1] of 0.62 µM. Besides, in test [3], the “MSRA (% modification) 5.0 μM 0.25 hr” value was found to be 26%.
